Test results published in patent publication US20260035345A1 (Lento Bio, Inc., priority 2023, published 2026).
Converted amounts (≈) assume the structure as drawn. Read-outs that look alike come from different tables or passages of the source. Non-standard residues stand in square brackets, D forms with d. Residues, ends and D or L forms follow the SMILES beside them. Aib = CC(C)(N)C(=O)O

Legend:
[1] = system: ocular lenses from 8-month-old C57BL/6 mice; test: Ex vivo lens stiffness screen, single-point variant of the coverslip method; design: species or system mouse; details: 20 mM; for Avg. % Compress.: lenses incubated 12 hours at 37° C., 588.0 mg coverslip weight
Experimental: An ex vivo screen was conducted to evaluate the effect of multiple compounds on lens stiffness using a more efficient variant of the coverslip method (Cheng, et al., J. Vis. Exp., 111: 53986 (2016). Our variant uses a single measurement point to enable multidrug screening, utilizing a weight deemed optimal based on coverslip quantity-response curves. Previously dissected and frozen eyes from 8-month-old C57BL/6 mice were thawed, and the ocular lenses were removed via micro-dissection. Next, intact ocular lenses were immersed and incubated in test compound solutions at various concentrations for 12 hours at 37° C. Individual washed lenses were placed into a divot in a solution-filled plexiglass measurement chamber, where uncompressed axial diameter was assessed. Then 3 glass coverslips glued together, with a total weight of 588.0 mg, were placed on top of the lens, and the axial diameter was remeasured. Change in lens stiffness was calculated as the ratio between the axial diameter of compressed lens to the axial diameter of the unweighted lens (compressed/uncompressed), with higher ratios indicative of more flexibility. To address an important limitation with ex vivo lens treatment (that lens stiffness increases over time, by default, when the lens is removed from the eye post-mortem), we compared treatment with NAC to freshly dissected 8-month lenses and observed natural stiffening occurred during the 12-hour incubation period (10.34% mean compression, n=10).

[2] = Aqueous humor LC/MS concentration comparison (corneal penetration); assay type: in vivo, mouse; details: 100 mM eyedrops 2×/day for 1 month; for concentration at 1 h: C57BL/6, mouse, aqueous humor, topical
Experimental: A study was conducted to assess the degree to which N-(2-fluoro-2-methyl-1-propylcarbonyl)-cysteine penetrated the mouse cornea, as compared to NAC and N-pivaloylcysteine.
(§1) Eight-month-old C57BL/6 mice were given […] eyedrops of 100 mM N-(2-fluoro-2-methyl-1-propylcarbonyl)-cysteine, 100 mM N-pivaloylcysteine, or 100 mM NAC for 1 month at 2×/day. 10 mice were present in each group. […] Safety via histology was positive.
On the final day aqueous humor was drawn from the eyes (average of 1-5 μL extracted) 1 hour after final dose, and the concentration of each compound quantified via LC/MS (column: Atlantis T3, 100×2.1 mm, 5 μm; mobile phases: A: Water/Formic Acid (1000/5, v/v), B: Acetonitrile/Methanol/Formic Acid (50/50/0.3, v/v/v).

[3] = system: Eight-month-old C57BL/6 mice; test: One-month eyedrop tolerability and histology in the aqueous humor study; assay type: in vivo; details: 100 mM eyedrops 2×/day for 1 month
Experimental: as §1

[4] = system: lens stiffness in 7-month-old C57BL/6 mice; test: Initial in vivo lens stiffness test with NAC eyedrops for one month; design: species or system mouse
Experimental: An initial in vivo test was conducted on NAC utilizing 7-month-old C57BL/6 mice subsequently treated for one month 2×/day with both 100 mM and 20 mM NAC eyedrops (artificial tears was used as the vehicle). During the last day, animals were sacrificed, eyes enucleated, and lenses were removed. Lens stiffness was measured by the same assay as ex vivo, with measurements taken within 5-10 minutes of lens removal. Both a 588 mg and 1047 mg weight were used in the assay.

[5] = system: ocular lenses from 8-month-old C57BL/6 mice; test: Ex vivo lens stiffness screen, single-point variant of the coverslip method; design: species or system mouse; details: 1-hour of incubation with NAC
[6] = system: lens stiffness in 7-month-old C57BL/6 mice; test: In vivo efficacy: lens stiffness after eyedrop treatment (Example 4); design: species or system mouse; details: for average total compression: eyedrops, 28-day treatment, fluoro compound 200 mM, LACE 1.5% (PBS vehicle); for lens stiffness versus vehicle treated mice: fluoro compound 200 mM (also versus LACE), LACE 1.5%
Experimental: Rationale and goal: To determine the effect of N-acetylcysteine (NAC) and its variants on reducing lenses stiffness in vivo.
The following sample groups were tested in 7-month-old C57BL/6 mice: vehicle (artificial tears)(40 mice), N-acetylcysteine 20 mM (20 mice), N-(2-fluoro-2-methyl-1-propylcarbonyl)-cysteine 200 mM (10 mice), LACE (lipoic acid choline ester) 1.5% (PBS vehicle) (10 mice), 2-month-old mice (untreated) (7 mice).
Vehicle-treated mice averaged 199.34 micrometers total compression (std. dev 32.16). […] Mice treated with LACE averaged 209.68 micrometers total compression (std. dev 28.16).

[7] = Maximum soluble concentration in artificial tears; assay type: physicochemical; details: saline or isotonic
aged mouse lenses = details: background statement; cited from earlier work
[8] = system: Two-month-old C57BL/6 mice; test: Toxicology and dosing optimization in mice, 1 week of eyedrops (Example 5); assay type: in vivo, mouse
Experimental: A study was conducted to assess the maximum tolerable dose of N-(2-fluoro-2-methyl-1-propylcarbonyl)-cysteine (and its S-acetylated counterpart, N-(2-fluoro-2-methyl-1-propylcarbonyl)-S-acetylcysteine for lens stiffness reduction and to assess via histology whether any safety issues arose from 1 week of treatment with these compounds, particularly in the lens and cornea.
Two-month-old C57BL/6 mice were treated 2×/day with treatment compounds (see sample groups (n=5) and concentrations below). Animals were assessed for itching and scratching/blinking after dosing, hyperemia, lid swelling, discharge, and squinting, all on a scale of 1-4. Those scoring were blinded to treatment groups. Following euthanasia eyes were fixed and stained with H+E, and corneal and lens anatomy in the two highest concentration groups considered tolerable were assessed.

[9] = drawn 1 hour after final dose, LC/MS
[10] = listed as N-(2-fluoro-2-methyl-1-oxopropyl)-cysteine

With `CC(C)(C)C(=O)N[C@@H](CS)C(=O)O` [N-pivaloylcysteine, N-(2,2-dimethyl-1-oxopropyl)-cysteine] the “improvement over NAC in ex vivo lens stiffness” value [1] was “significant improvement”, the “rank of improvement among tested derivatives, ex vivo lens stiffness” value (from here on “rank”) [1] was “largest improvement” and the “Avg. % Compress.” value [1] was 6.82%. The concentration at 1 h [2, 9] was 38 µM, the Safety via histology [3] was “positive” and the “increase of tolerability issues including blinking or hyperemia over time” value [3] was “No noticeable increase”.

In the case of `CCCCCC(=O)N[C@@H](CS)C(=O)O` [N-(n-pentylcarbonyl)-cysteine], the “Avg. % Compress.” value [1] is reported as 4.31%.

For `COC(C)(C)C(=O)N[C@@H](CS)C(=O)O`, the “Avg. % Compress.” value [1] was 6.38%.

In the case of `CC(=O)N[C@@H](CS)C(=O)O` [N-acetyl-cysteine, reference compound], the “Avg. % Compress.” value [1] is reported as 5.76%, the “lens stiffness compared to untreated (vehicle) control lenses” value ([1]; ex vivo screen) is reported as “significantly improved” and the “improvement in lens stiffness over vehicle” value ([4]; 20 mM eyedrops 2×/day for one month) is reported as “minor and insignificant improvement”. For the same compound, the “improvement in lens stiffness over vehicle” value ([4]; 100 mM eyedrops 2×/day for one month, 588 mg and 1047 mg weights) was “significant improvement”, the aqueous humor concentration [2, 9] was 17 out of 20 samples falling below the limit of detection and the “improvement of lens stiffness compared to vehicle” value [5] was 2.07%.

In the case of `CCC(C)(C)C(=O)N[C@@H](CS)C(=O)O`, the “Avg. % Compress.” value [1] is reported as 6.29%.

In the case of `C[N+](C)(C)CCOC(=O)CCCC[C@@H]1CCSS1` [LACE, Lipoic acid choline ester, reference compound], the average total compression [6] is reported as 209.68 micrometers and the “lens stiffness versus vehicle treated mice” value [6] is reported as “did not significantly improve”.

In the case of `CC(C)(F)C(=O)N[C@@H](CS)C(=O)O` [listing 1 of 2 here], the “improvement over NAC in ex vivo lens stiffness” value [1, 10] is reported as “significant improvement” and the “rank” value [1, 10] is reported as “highest mean significance as well as the highest significance vs vehicle”.

For `CC(C)C(=O)N[C@@H](CS)C(=O)O` [N-(isopropylcarbonyl)-cysteine], the “Avg. % Compress.” value [1] was 6.71%.

In the case of `CC(C)(C(=O)N[C@@H](CS)C(=O)O)c1ccccc1`, the “Avg. % Compress.” value [1] is reported as 6.18%.

For `O=C(N[C@@H](CS)C(=O)O)C1CC1` [N-cyclopropylcarbonyl-cysteine], the “Avg. % Compress.” value [1] was 6.02%.

With `CC(=O)SCC(NC(=O)C(C)(C)F)C(=O)O` (stereo not drawn) the solubility ([7]; artificial tears, read-out: maximum soluble concentration in artificial tears) was 300 mM (≈ 75.4 mg/mL).

With `O=C(N[C@@H](CS)C(=O)O)c1ccccc1` [N-phenylcarbonyl-cysteine] the “Avg. % Compress.” value [1] was 5.98%.

For `CC(C)(N)C(=O)N[C@@H](CS)C(=O)O` (H-[Aib]-Cys-OH), the “Avg. % Compress.” value [1] was 5.68%.

For `CC(=O)N[C@H](CS)C(=O)O` [N-acetyl-D-cysteine], the “improvement versus vehicle (lens stiffness)” value ([4]; a later study, conditions not given) was “significant improvement versus vehicle but at a reduced power versus NAC”.

For `CC(=O)N[C@@H](CSC(C)=O)C(=O)O` [S,N-diacetylcysteine], the “lens stiffness in ex vivo treated aged mouse lenses” value (aged mouse lenses) is listed as “reduces lens stiffness”.

For `CC(C)(F)C(=O)N[C@@H](CS)C(=O)O` [listing 2 of 2 here], the “rank” value [1] was “superior lens stiffness reducing efficacy”, the “Avg. % Compress.” value [1] was 6.87% and the “improvement over NAC in vivo” value ([6]; 200 mM vs N-acetylcysteine 20 mM) was “significant improvement”. The “lens stiffness lost to aging from 2-8 months restored” value ([6]; 200 mM, relative to 2-month-old untreated mice and 8-month vehicle) was 67.9%, the average total compression [6] was 281.05 micrometers and the “lens stiffness versus vehicle treated mice” value [6] was “significantly reduced”. The tolerability ([8]; 200 mM, 2×/day for 1 week) was “tolerable”, the “Histology of treated lenses” value ([8]; mouse, in vivo) was “entirely normal” and the solubility [7] was 200 mM (≈ 41.8 mg/mL). The “aqueous humor concentration and corneal penetration over NAC and N-pivaloylcysteine” value [2] was “improved”, the concentration at 1 h [2, 9] was 47 µM and the Safety via histology [3] was “positive”. The “increase of tolerability issues including blinking or hyperemia over time” value [3] was “No noticeable increase”.

In the case of `O=C(Cc1ccccc1)N[C@@H](CS)C(=O)O` [N-benzylcarbonyl-cysteine], the “Avg. % Compress.” value [1] is reported as 4.38%.

In the case of `CN(C)C(=O)N[C@@H](CS)C(=O)O` [N-dimethylaminocarbonyl-cysteine], the “Avg. % Compress.” value [1] is reported as 4.19%.
